{
  "source": "ChEMBL document CHEMBL1201862",
  "about": "“PubChem BioAssay data set” (2004)",
  "key": {"[1]": {"biological_target": "T1, Probable nicotinate-nucleotide adenylyltransferase (Staphylococcus aureus (strain N315), UniProt P65502)", "T1 sequence (P65502 whole entry)": "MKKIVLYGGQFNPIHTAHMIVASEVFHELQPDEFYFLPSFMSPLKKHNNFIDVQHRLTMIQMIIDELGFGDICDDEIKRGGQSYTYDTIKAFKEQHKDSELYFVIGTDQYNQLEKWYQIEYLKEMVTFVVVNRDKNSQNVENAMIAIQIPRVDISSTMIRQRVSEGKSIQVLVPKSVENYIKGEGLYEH", "format": "functional, Staphylococcus aureus subsp. aureus N315"}, "[2]": {"biological_target": "Envelope glycoprotein gp160 (Human immunodeficiency virus 1, UniProt Q6QLK5)", "sequence (Q6QLK5 whole entry, the tested form may be a part)": "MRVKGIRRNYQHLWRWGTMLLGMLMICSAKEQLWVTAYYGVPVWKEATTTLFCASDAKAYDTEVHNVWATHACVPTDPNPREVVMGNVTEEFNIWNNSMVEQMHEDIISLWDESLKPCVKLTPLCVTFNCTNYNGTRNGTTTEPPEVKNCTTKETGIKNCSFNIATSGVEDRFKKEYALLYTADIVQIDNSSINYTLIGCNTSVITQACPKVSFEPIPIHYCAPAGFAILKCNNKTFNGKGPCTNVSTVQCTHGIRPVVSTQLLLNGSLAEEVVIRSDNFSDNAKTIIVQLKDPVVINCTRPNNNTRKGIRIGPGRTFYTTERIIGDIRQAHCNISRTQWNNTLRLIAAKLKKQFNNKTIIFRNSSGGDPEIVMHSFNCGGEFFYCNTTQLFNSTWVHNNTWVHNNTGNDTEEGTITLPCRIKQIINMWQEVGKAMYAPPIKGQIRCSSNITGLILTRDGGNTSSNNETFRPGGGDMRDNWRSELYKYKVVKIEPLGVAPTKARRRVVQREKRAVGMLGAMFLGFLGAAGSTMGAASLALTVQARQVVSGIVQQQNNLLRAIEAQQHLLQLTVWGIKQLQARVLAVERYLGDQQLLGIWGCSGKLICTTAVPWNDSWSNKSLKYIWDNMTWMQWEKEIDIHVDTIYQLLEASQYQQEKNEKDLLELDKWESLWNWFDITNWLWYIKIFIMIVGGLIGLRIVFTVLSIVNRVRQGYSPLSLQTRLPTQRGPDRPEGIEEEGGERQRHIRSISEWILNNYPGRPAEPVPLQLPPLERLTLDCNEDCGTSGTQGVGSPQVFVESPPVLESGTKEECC", "assay": "cell-free HIV fusion peptide-binding blockers – biochemical, uHTS, fluorescence dequenching, […] (AID 1986)"}, "[3]": {"assay": "CCR5-tropic HIV-1 fusion blockers – cell-based, CCR5-tropic Env, dose response (AID 2279)", "format": "functional"}, "[4]": {"biological_target": "T1, Probable nicotinate-nucleotide adenylyltransferase", "format": "functional, Staphylococcus aureus subsp. aureus N315", "settings": "read-out: IC50_Mean"}, "[5]": {"biological_target": "ELAV-like protein 1 (Homo sapiens, UniProt Q15717)", "sequence (Q15717 whole entry)": "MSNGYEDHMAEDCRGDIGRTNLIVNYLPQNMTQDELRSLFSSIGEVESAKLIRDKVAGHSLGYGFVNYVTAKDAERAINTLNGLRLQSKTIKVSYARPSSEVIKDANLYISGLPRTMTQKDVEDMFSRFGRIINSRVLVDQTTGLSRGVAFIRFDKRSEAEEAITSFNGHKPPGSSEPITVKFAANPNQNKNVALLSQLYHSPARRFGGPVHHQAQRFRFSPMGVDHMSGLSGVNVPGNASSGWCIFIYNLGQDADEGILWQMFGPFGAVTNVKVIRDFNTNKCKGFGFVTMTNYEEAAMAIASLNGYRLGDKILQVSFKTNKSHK", "assay": "Identify HuR specific inhibitors.", "format": "functional"}, "[6]": {"biological_target": "T2, Streptokinase A (Streptococcus pyogenes serotype M1, UniProt P10520)", "T2 sequence (P10520 whole entry)": "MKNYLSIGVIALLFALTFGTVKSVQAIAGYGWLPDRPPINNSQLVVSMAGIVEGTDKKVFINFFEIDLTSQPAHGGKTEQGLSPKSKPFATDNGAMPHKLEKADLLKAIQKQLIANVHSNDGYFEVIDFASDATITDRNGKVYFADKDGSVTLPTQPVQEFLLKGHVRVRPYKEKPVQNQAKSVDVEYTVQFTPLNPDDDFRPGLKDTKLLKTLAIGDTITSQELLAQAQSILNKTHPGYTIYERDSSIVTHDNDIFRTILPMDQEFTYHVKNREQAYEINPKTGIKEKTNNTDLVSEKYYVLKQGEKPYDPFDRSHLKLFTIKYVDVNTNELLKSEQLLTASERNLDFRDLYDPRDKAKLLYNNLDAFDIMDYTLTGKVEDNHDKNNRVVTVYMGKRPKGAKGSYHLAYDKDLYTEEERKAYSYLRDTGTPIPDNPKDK", "assay": "viability-normalized secreted streptokinase activity reduction – plasminogen activation absorbance, OD405, dose response (AID 1914);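 also: secreted streptokinase activity via plasminogen activation per viability signal from cell pellet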", "format": "functional, Streptococcus pyogenes M1 GAS"}, "[7]": {"tested_on": "INS1", "assay": "INS-1E survival protection against cytokine death – cell-based, luminescence, retest, dose response (AID 449756);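 also: cell death triggered by IL-1 beta plus TNF-alpha plus IFN-gamma mixture; protective hits raise ATP signal compared with cytokine alone wells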", "format": "functional", "settings": "Rattus norvegicus"}, "[8]": {"biological_target": "G-protein coupled receptor 55 (Homo sapiens, UniProt Q9Y2T6)", "sequence (Q9Y2T6 whole entry)": "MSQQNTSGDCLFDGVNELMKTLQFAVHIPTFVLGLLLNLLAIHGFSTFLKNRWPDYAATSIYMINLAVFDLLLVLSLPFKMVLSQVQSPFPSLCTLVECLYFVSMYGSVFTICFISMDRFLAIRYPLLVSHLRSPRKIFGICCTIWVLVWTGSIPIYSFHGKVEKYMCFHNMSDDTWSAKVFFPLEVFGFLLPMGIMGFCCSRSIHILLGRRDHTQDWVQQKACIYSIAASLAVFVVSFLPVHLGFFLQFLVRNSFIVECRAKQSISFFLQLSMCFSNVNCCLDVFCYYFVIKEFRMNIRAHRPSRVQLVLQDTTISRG", "assay": "selective activators of receptor GPR55 – imaging, U2OS cells, beta-arrestin-GFP redistribution, primary screen (AID 1961)", "format": "functional"}, "[9]": {"assay": "microbe, parasite or virus in culture", "format": "functional", "settings": "Mycobacterium tuberculosis"}, "[10]": {"tested_on": "Streptococcus sp. 'group A'", "assay": "Streptococcus pyogenes SK(-)GAS viability under kanamycin – luminescence, BacTiterGlo, confirmation, counter-screen for streptokinase expression inhibitor project, dose response (AID 1900)", "format": "functional, organism-based"}, "[11]": {"biological_target": "Glyceraldehyde-3-phosphate dehydrogenase (Homo sapiens, UniProt P04406)", "sequence (P04406 whole entry)": "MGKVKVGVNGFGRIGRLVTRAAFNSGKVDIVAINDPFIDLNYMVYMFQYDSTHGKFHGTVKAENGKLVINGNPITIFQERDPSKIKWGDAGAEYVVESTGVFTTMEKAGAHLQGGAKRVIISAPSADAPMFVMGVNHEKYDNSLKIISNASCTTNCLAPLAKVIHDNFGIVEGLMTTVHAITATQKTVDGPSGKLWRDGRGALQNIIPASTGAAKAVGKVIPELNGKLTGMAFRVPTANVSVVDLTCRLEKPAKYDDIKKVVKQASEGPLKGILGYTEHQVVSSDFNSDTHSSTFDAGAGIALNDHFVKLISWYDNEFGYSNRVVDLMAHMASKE"}, "[12]": {"tested_on": "Streptococcus", "assay": "GAS UMAA2166 growth inhibition – luminescence, BacTiterGlo, counter-screen for streptokinase expression inhibitor project, dose response (AID 1915);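 also: potency for reduction of bacterial viability or growth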", "format": "functional, organism-based"}, "[13]": {"tested_on": "HT-1080", "assay": "HT1080 cell viability loss – fluorescence readout (AID 620)", "format": "functional, cell-based", "settings": "Homo sapiens"}, "[14]": {"assay": "IC50 of Artemis nuclease activity blockers – biochemical, fluorescence intensity, dose response (AID 720701);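 also: Artemis endonuclease enzyme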", "format": "functional"}, "[15]": {"biological_target": "Luciferin 4-monooxygenase (Photinus pyralis, UniProt P08659)", "sequence (P08659 whole entry)": "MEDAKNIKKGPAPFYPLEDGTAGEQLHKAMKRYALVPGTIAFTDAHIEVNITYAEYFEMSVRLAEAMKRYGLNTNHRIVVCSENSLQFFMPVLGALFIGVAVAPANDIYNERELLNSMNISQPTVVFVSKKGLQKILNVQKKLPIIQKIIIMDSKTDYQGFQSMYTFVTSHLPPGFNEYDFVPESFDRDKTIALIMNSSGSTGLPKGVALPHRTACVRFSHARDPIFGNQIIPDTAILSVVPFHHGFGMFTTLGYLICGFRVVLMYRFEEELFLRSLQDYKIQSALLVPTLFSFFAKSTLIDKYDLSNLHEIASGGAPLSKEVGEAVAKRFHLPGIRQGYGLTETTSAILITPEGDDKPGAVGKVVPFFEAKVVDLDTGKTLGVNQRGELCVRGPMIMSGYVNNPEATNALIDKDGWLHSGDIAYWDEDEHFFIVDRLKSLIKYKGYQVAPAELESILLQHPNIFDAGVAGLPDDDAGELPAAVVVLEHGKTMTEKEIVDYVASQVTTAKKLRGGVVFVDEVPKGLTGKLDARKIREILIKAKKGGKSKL", "assay": "Counter Screen for Luciferase-based Assay Positives. [Related pubchem assays: 620, 618, 411 ]"}, "[16]": {"biological_target": "T3, Runt-related transcription factor 1/Core-binding factor subunit beta (Homo sapiens, UniProt Q01196+Q13951)", "T3 sequence (Q01196 whole entry, the tested form may be a part)": "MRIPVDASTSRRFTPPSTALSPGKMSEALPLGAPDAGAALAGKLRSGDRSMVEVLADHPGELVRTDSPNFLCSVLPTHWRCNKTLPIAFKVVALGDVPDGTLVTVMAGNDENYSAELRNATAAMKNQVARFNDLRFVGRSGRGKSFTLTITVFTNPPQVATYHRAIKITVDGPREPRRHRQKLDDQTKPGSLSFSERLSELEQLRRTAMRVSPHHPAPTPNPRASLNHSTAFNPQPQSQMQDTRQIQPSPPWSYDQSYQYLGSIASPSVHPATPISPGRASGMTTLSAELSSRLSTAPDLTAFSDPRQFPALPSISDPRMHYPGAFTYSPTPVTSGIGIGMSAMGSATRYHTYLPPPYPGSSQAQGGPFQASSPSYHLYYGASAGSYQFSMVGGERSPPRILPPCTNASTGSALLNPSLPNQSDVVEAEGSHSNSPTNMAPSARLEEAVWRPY", "T3 sequence (Q13951 whole entry, the tested form may be a part)": "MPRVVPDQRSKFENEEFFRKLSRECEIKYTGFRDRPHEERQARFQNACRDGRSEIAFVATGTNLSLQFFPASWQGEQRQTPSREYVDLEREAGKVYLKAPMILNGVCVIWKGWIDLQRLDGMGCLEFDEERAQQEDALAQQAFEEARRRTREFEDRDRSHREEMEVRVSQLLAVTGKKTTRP", "assay": "Runt domain/CBFb-SMMHC interaction disruptors – biochemical, TR-FRET (AID 1438)", "format": "protein assay"}, "[17]": {"biological_target": "T3, Runt-related transcription factor 1/Core-binding factor subunit beta", "assay": "disruptors of Runt domain/CBFb-SMMHC interaction – biochemical, FRET, Cerulean-Runt, Venus-CBFb-SMMHC, uHTS, […] (AID 1434)", "format": "protein assay"}, "[18]": {"biological_target": "T4, CAAX prenyl protease 2 (Homo sapiens, UniProt Q9Y256)", "T4 sequence (Q9Y256 whole entry)": "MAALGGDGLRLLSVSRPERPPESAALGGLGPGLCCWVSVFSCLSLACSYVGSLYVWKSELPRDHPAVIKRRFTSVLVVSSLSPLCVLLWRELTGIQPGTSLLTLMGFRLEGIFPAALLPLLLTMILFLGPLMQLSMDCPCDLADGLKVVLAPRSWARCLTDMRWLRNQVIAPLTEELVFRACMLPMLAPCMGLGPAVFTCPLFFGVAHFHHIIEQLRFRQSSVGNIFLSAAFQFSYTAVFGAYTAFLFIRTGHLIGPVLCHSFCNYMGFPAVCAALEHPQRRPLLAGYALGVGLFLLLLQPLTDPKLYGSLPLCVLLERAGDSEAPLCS", "assay": "inhibition of Ras-converting CAAX protease Rce1 – biochemical, yeast membranes, quenched-peptide fluorescence, cherry-pick, dose response (AID 588849)"}, "[19]": {"biological_target": "T5, Rac GTPase-activating protein 1 (Homo sapiens, UniProt Q9H0H5)", "T5 sequence (Q9H0H5 whole entry)": "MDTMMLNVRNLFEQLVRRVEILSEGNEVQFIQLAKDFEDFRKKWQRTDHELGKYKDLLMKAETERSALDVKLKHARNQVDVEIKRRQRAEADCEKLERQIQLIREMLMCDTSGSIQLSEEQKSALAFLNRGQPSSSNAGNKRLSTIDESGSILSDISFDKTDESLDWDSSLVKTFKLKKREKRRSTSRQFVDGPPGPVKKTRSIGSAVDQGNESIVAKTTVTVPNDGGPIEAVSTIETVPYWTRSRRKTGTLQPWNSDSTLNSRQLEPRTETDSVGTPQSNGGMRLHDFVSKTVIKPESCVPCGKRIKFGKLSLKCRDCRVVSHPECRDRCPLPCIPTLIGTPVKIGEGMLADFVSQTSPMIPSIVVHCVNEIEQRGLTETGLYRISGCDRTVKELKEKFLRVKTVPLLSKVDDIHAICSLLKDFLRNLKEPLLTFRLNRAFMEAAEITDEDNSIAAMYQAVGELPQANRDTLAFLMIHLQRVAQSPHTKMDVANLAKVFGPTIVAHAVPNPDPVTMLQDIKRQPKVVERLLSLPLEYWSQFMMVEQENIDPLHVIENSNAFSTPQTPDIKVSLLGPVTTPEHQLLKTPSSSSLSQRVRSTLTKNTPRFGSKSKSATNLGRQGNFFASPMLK", "assay": "blockers of MgcRacGAP-driven Rac1 GTP hydrolysis – biochemical, ADP Hunter fluorescence, primary and confirmatory, confirmation (AID 624330)", "format": "functional"}, "[20]": {"assay": "viability loss in HeLa cells – cytotoxicity control for MgcRacGAP inhibitor project, dose response (AID 624300)", "format": "functional"}, "[21]": {"biological_target": "CAAX prenyl protease 2 (Saccharomyces cerevisiae S288c, UniProt Q03530)", "sequence (Q03530 whole entry)": "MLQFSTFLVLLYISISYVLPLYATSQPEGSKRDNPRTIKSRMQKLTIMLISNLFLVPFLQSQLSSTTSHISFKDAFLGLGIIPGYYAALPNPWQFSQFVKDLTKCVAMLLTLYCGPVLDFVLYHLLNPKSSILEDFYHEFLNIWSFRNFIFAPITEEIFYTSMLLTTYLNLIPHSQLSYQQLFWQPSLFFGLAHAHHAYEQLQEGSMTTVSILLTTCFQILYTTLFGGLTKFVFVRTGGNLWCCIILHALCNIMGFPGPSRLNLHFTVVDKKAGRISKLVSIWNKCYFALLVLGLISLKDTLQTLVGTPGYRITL", "format": "biochemical"}, "[22]": {"biological_target": "Trypsin (Sus scrofa, UniProt P00761)", "sequence (P00761 whole entry)": "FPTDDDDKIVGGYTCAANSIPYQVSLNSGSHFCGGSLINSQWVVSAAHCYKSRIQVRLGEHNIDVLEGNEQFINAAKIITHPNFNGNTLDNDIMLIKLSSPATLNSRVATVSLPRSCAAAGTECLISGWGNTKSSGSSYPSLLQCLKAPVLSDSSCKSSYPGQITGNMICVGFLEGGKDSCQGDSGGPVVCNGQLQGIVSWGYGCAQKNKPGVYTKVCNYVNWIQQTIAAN", "assay": "trypsin protease activity blockade – biochemical, quenched peptide fluorescence, cherry-pick, selectivity assay for Rce1 protease inhibitor project, dose response (AID 488789)"}, "[23]": {"biological_target": "E3 ubiquitin-protein ligase Mdm2/Protein Mdm4 (Homo sapiens, UniProt O15151+Q00987)", "sequence (Q00987 whole entry)": "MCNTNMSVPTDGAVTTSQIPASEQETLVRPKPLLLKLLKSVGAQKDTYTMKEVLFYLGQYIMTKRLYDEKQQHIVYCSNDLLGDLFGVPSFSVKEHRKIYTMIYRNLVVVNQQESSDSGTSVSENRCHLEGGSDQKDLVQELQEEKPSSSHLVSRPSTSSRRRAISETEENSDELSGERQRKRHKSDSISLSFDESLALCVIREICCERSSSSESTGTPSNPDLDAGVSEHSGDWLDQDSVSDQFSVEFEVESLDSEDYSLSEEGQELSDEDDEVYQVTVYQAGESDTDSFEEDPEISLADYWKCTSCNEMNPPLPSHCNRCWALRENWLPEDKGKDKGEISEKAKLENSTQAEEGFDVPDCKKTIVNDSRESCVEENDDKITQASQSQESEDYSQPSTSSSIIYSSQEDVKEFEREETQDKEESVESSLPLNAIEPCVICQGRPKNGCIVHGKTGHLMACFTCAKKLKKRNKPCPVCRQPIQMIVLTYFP", "sequence (O15151 whole entry)": "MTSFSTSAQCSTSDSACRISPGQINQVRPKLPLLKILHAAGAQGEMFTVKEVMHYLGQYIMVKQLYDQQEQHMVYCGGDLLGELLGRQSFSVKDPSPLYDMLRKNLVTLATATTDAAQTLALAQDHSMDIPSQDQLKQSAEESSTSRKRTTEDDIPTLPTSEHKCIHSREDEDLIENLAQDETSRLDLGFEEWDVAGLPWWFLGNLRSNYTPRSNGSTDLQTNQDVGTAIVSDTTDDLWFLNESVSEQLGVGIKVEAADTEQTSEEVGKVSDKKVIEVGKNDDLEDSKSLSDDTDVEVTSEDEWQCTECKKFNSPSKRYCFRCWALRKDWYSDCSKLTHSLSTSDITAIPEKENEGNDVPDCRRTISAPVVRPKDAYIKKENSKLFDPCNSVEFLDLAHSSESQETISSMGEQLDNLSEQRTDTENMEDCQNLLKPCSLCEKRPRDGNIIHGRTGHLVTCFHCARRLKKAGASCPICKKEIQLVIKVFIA", "assay": "disruption of Mdm2/MdmX protein binding – luminescence detection, dose response (AID 504593)", "format": "functional"}},
  "note": "Activity calls are given as the source filed them.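 For IC50 Mean in this document: confirmatory dose-response retesting of NadD inhibitor hits first found in an ultra-high-throughput screen.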",
  "data": [
    {"smiles": "COC1C(OC(=O)c2ccc(C)[nH]2)C(O)C(Oc2ccc3c(O)c(NC(=O)c4ccc(O)c(CC=C(C)C)c4)c(=O)oc3c2Cl)OC1(C)C", "note": "(stereo not drawn)", "values": [
      {"measurement": "IC50", "setting": "[1]", "result": "2.1 µM (active)"},
      {"measurement": "IC50", "setting": "[2]", "result": "13 µM (active)"},
      {"measurement": "IC50", "setting": "[3]", "result": "38.4 µM (active)"},
      {"measurement": "IC50", "setting": "[4]", "result": "7.01 µM (active)"},
      {"measurement": "IC50", "setting": "[5]", "result": "41.9 µM (active)"}
    ]},
    {"smiles": "Cc1cc(/C=N/n2cnnc2)c(C)n1-c1ccc(OCc2ccc(Cl)cc2Cl)cc1", "values": [
      {"measurement": "EC50", "setting": "[6]", "result": "> 150 µM (not active)"},
      {"measurement": "AC50", "setting": "[7]", "result": "1.6 µM (active)"},
      {"measurement": "EC50", "setting": "[8]", "result": "1.35 µM (active)"},
      {"measurement": "CC50", "setting": "[9]", "result": "14.1 µM (active)"},
      {"measurement": "EC50", "setting": "[10]", "result": "2.46 µM (active)"},
      {"measurement": "IC50", "setting": "[11]", "result": "> 100 µM (not active)"},
      {"measurement": "EC50", "setting": "[12]", "result": "4.73 µM (active)"},
      {"measurement": "EC50", "setting": "[13]", "result": "> 50 µM (not active)"},
      {"measurement": "IC50", "setting": "[14]", "result": "5.84 µM (active)"},
      {"measurement": "EC50", "setting": "[15]", "result": "280 nM (active)"}
    ]},
    {"smiles": "Cc1cc(C)n2nc3nc4c(cc3c2n1)CCCC4", "values": [
      {"measurement": "IC50", "setting": "[16]", "result": "> 100 µM (inactive)"},
      {"measurement": "IC50", "setting": "[17]", "result": "36.8 µM (active)"}
    ]},
    {"smiles": "COc1cc(-c2nc3ccccn3c2NCC2CCCO2)ccc1O", "note": "(stereo not drawn)", "values": [
      {"measurement": "AC50", "setting": "[18]", "result": "6.82 µM (active)"},
      {"measurement": "IC50", "setting": "[19]", "result": "49.9 µM (active)"},
      {"measurement": "CC50", "setting": "[20]", "result": "100 µM (active)"},
      {"measurement": "AC50", "setting": "[21]", "result": "23.4 µM (active)"},
      {"measurement": "AC50", "setting": "[22]", "result": "12.8 µM (active)"}
    ]},
    {"smiles": "COc1cc(-c2nc(-c3ccc(NC(=O)c4ccc5c(c4)OCO5)cc3)no2)cc(OC)c1OC", "values": [
      {"measurement": "IC50", "setting": "[23]", "result": "3.91 µM (active)"}
    ]}
  ]
}
